Experimental data taken from patent publication US20240124418A1 (BioTheryX, Inc., priority 2020, published 2024).

Tests used:
TNF-α = assay: Cell-based TNF-α inhibition assay (LPS-induced PBMCs, Meso Scale); details: PBMC, PBMCs pretreated 1 h, LPS 100 ng/mL 18-24 h, percentage of stimulated DMSO control; for inhibition at 0.1 µM: compound concentration 0.1 μM; for inhibition at 1 µM: compound concentration 1 μM
How it was run: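 Thawed primary PBMCs (200,000 cells/well, RPMI 1640 with 10% FBS) were pretreated with compound for 1 h, then stimulated with 100 ng/mL LPS for 18–24 h. Supernatant TNF-α was measured by Meso Scale, and activity was expressed as percent inhibition relative to the stimulated DMSO control.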

PDE4B = molecular target: T1, PDE4B (Homo sapiens, UniProt Q07343); assay: Protein degradation assay, western blot, PDE4B in A549 cells; format: cell-based; details: 24 h treatment, 'as high as about' = upper value for the group, read-out: PDE4B degradation relative to DMSO
T1 construct: endogenous in cells; host or cells: A549
T1 sequence (Q07343 whole entry): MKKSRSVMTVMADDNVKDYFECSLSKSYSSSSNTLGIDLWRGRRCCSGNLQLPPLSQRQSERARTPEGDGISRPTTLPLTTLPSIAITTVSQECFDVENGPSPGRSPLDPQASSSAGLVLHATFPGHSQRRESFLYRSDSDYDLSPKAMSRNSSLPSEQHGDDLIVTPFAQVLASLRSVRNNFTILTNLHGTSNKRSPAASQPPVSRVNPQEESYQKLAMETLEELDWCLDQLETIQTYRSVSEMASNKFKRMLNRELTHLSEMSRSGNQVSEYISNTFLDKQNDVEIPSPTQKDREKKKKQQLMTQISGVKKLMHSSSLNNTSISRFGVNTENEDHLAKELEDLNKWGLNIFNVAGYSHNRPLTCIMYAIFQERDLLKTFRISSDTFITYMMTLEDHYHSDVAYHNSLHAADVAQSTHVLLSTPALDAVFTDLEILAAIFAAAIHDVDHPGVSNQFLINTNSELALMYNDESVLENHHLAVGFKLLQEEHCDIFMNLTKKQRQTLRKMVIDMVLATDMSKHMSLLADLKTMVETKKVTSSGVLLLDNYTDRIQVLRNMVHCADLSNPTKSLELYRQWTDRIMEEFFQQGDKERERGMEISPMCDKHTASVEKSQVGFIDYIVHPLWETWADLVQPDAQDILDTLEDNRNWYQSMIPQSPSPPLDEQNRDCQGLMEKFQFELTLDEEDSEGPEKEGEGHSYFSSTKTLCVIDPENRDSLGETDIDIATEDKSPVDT
Procedure: Example B2. Protein Degradation Assay
A549 cells were grown in RPMI 1640 media supplemented with 10% fetal bovine serum, streptomycin, and penicillin. The cells were plated in 6-well plates at 300,000 cells/well in the growth media. After overnight incubation, the cells were treated with DMSO (control) or a compound at predetermined concentrations (e.g., 10 nM, 100 nM, 1 μM, 3 μM, or 10 μM) for 24 h at 37° C. under 5% CO2. Whole cell extracts were prepared using an immunoprecipitation (IP) lysis buffer. The cells were washed once in PBS, and the cell pellets were resuspended in the IP lysis buffer and incubated for 15 min on ice. Cells debris was removed by centrifugation and the cleared whole cell lysates were transferred to new tubes for further analysis.
For a western blot analysis, the whole cell protein extracts were separated on 4-12% SDS-polyacrylamide gels, transferred to nitrocellulose, and probed with primary antibodies. Membranes were subsequently washed and probed with IRDYE® secondary antibodies. The signals were detected using an ODYSSEY® Imaging System. The antibodies used in the assay included anti-PDE4B antibody; anti-PDE4D antibodies (top, bottom, and short isoform); β-actin mouse monoclonal antibody; IRDYE® 680RD goat anti-rabbit antibody; and IRDYE® 800CW goat anti-mouse antibody. The compounds provided herein are PDE4 protein degraders.

Row | SMILES | inhibition at 0.1 µM (TNF-α) [%] | inhibition at 1 µM (TNF-α) [%] | Dmax (PDE4B) [%]
1 | CCOc1cc([C@@H](CS(C)(=O)=O)N2C(=O)c3cccc(NC(=O)CCCCCCCCC4CCN(c5cccc6c5C(=O)N(C5CCC(=O)NC5=O)C6=O)CC4)c3C2=O)ccc1OC (stereo partly drawn) [Compound A15, 9-{1-[2-(2,6-Dioxopiperidin-3-yl)-1,3-dioxo-2,3-dihydro-1H-isoindol-4-yl]piperidin-4-yl}-N-{2-[(1S)-1-(3-ethoxy-4-methoxyphenyl)-2-methanesulfonylethyl]-1,3-dioxo-2,3-dihydro-1H-isoindol-4-yl}nonanamide] | 40 to 60 | ≥ 60 | ≤ 70
2 | CCOc1cc([C@@H](CS(C)(=O)=O)N2C(=O)c3cc(CCCCCCCCCCCCN4CCC(c5cc(F)cc6c5CN(C5CCC(=O)NC5=O)C6=O)CC4)cc(NC(C)=O)c3C2=O)ccc1OC (stereo partly drawn) [Compound A14, N-(6-(12-(4-(2-(2,6-Dioxopiperidin-3-yl)-6-fluoro-1-oxoisoindolin-4-yl)piperidin-1-yl)dodecyl)-2-((S)-1-(3-ethoxy-4-methoxyphenyl)-2-(methylsulfonyl)ethyl)-1,3-dioxoisoindolin-4-yl)acetamide] |  |  | ≤ 70
3 | O=C1CCC(Nc2cccc(NC(=O)CN3CCN(CCOc4cc(C(=O)Nc5c(Cl)cncc5Cl)ccc4OC(F)F)CC3)c2)C(=O)N1 (centres unmarked) [Compound B24, N-(3,5-Dichloropyridin-4-yl)-4-(difluoromethoxy)-3-(2-(4-(2-((3-((2,6-dioxopiperidin-3-yl)amino)phenyl)amino)-2-oxoethyl)piperazin-1-yl)ethoxy)benzamide] | ≥ 60 | ≥ 60 | ≤ 70
4 | CCOc1cc([C@@H](CS(C)(=O)=O)N2C(=O)c3cccc(NC(=O)CCOCCOCCNCc4ccc(OCc5scc6c5CN(C5CCC(=O)NC5=O)C6=O)cc4)c3C2=O)ccc1OC (stereo partly drawn) [Compound A41, 3-[2-(2-{[(4-{[5-(2,6-Dioxopiperidin-3-yl)-4-oxo-4H,5H,6H-thieno[3,4-c]pyrrol-1-yl]methoxy}phenyl)methyl]amino}ethoxy)ethoxy]-N-{2-[(1S)-1-(3-ethoxy-4-methoxyphenyl)-2-methanesulfonylethyl]-1,3-dioxo-2,3-dihydro-1H-isoindol-4-yl}propanamide] | 40 to 60 | ≥ 60 | ≤ 70
5 | O=C1CCC(N2Cc3c(C#CC4CCN(C(=O)CCCCOc5cc(C(=O)Nc6c(Cl)cncc6Cl)ccc5OC(F)F)CC4)cccc3C2=O)C(=O)N1 (centres unmarked) [Compound B2, N-(3,5-Dichloropyridin-4-yl)-4-(difluoromethoxy)-3-((5-(4-((2-(2,6-dioxopiperidin-3-yl)-1-oxoisoindolin-4-yl)ethynyl)piperidin-1-yl)-5-oxopentyl)oxy)benzamide] |  |  | ≤ 70
6 | CCOc1cc([C@@H](CS(C)(=O)=O)N2C(=O)c3cccc(NC(=O)COCCOCCOCCOCCNc4cccc5c4C(=O)N(C4CCC(=O)NC4=O)C5=O)c3C2=O)ccc1OC (stereo partly drawn) [Compound A4, 14-((2-(2,6-Dioxopiperidin-3-yl)-1,3-dioxoisoindolin-4-yl)amino)-N-(2-((S)-1-(3-ethoxy-4-methoxyphenyl)-2-(methylsulfonyl)ethyl)-1,3-dioxoisoindolin-4-yl)-3,6,9,12-tetraoxatetradecan-1-amide] | ≥ 60 |  | ≤ 70
7 | O=C1CCC(N2Cc3cc(C4CCN(CCCCCCCOc5cc(C(=O)Nc6c(Cl)cncc6Cl)ccc5OC(F)F)CC4)c(F)cc3C2=O)C(=O)N1 (centres unmarked) [Compound B3, N-(3,5-Dichloropyridin-4-yl)-4-(difluoromethoxy)-3-((7-(4-(2-(2,6-dioxopiperidin-3-yl)-6-fluoro-1-oxoisoindolin-5-yl)piperidin-1-yl)heptyl)oxy)benzamide] |  |  | ≤ 70
8 | CCOc1cc([C@@H](CS(C)(=O)=O)N2C(=O)c3cccc(NC(=O)CCCCCCCN4CCC(c5cc6c(cc5F)C(=O)N(C5CCC(=O)NC5=O)C6)CC4)c3C2=O)ccc1OC (stereo partly drawn) [Compound A22, 8-{4-[2-(2,6-Dioxopiperidin-3-yl)-6-fluoro-1-oxo-2,3-dihydro-1H-isoindol-5-yl]piperidin-1-yl}-N-{2-[(1S)-1-(3-ethoxy-4-methoxyphenyl)-2-methanesulfonylethyl]-1,3-dioxo-2,3-dihydro-1H-isoindol-4-yl}octanamide] | ≥ 60 | ≥ 60 | ≤ 70
9 | O=C1CCC(Nc2cccc(NC(=O)CN3CCN(CCCCOc4cc(C(=O)Nc5c(Cl)cncc5Cl)ccc4OC(F)F)CC3)c2)C(=O)N1 (centres unmarked) [Compound B25, N-(3,5-Dichloropyridin-4-yl)-4-(difluoromethoxy)-3-(4-(4-(2-((3-((2,6-dioxopiperidin-3-yl)amino)phenyl)amino)-2-oxoethyl)piperazin-1-yl)butoxy)benzamide] | ≥ 60 | ≥ 60 | ≤ 70
10 | CCOc1cc([C@@H](CS(C)(=O)=O)N2C(=O)c3cccc(NC(=O)CCCCCCCCN4CCC(C#Cc5cc6c(cc5F)C(=O)N(C5CCC(=O)NC5=O)C6)CC4)c3C2=O)ccc1OC (stereo partly drawn) [Compound A20, 9-(4-{2-[2-(2,6-Dioxopiperidin-3-yl)-6-fluoro-1-oxo-2,3-dihydro-1H-isoindol-5-yl]ethynyl}piperidin-1-yl)-N-{2-[(1S)-1-(3-ethoxy-4-methoxyphenyl)-2-methanesulfonylethyl]-1,3-dioxo-2,3-dihydro-1H-isoindol-4-yl}nonanamide] | ≥ 60 | ≥ 60 | ≤ 70
11 | O=C1CCC(N2Cc3c(cc(F)cc3C3CCN(CCCOc4cc(C(=O)Nc5c(Cl)cncc5Cl)ccc4OC(F)F)CC3)C2=O)C(=O)N1 (centres unmarked) [Compound B11, N-(3,5-Dichloropyridin-4-yl)-4-(difluoromethoxy)-3-(3-(4-(2-(2,6-dioxopiperidin-3-yl)-6-fluoro-1-oxoisoindolin-4-yl)piperidin-1-yl)propoxy)benzamide] | ≥ 60 | ≥ 60 | ≤ 70
12 | CCOc1cc([C@@H](CS(C)(=O)=O)N2C(=O)c3cccc(NC(=O)CCCCCCCCC(=O)N[C@H](C(=O)N4C[C@H](O)C[C@H]4C(=O)NCc4ccc(-c5scnc5C)cc4)C(C)(C)C)c3C2=O)ccc1OC [Compound A60, N^1-(2-((S)-1-(3-Ethoxy-4-methoxyphenyl)-2-(methylsulfonyl)ethyl)-1,3-dioxoisoindolin-4-yl)-N^10—((S)-1-((2S,4R)-4-hydroxy-2-((4-(4-methylthiazol-5-yl)benzyl)-carbamoyl)pyrrolidin-1-yl)-3,3-dimethyl-1-oxobutan-2-yl)decanediamide] |  |  | ≤ 70
13 | CCOc1cc([C@@H](CS(C)(=O)=O)N2C(=O)c3cccc(NC(=O)CCCCCCCCNCc4ccc(OCc5scc6c5CN(C5CCC(=O)NC5=O)C6=O)cc4)c3C2=O)ccc1OC (stereo partly drawn) [Compound A12, 9-((4-((5-(2,6-Dioxopiperidin-3-yl)-4-oxo-5,6-dihydro-4H-thieno[3,4-c]pyrrol-1-yl)methoxy)benzyl)amino)-N-(2-((S)-1-(3-ethoxy-4-methoxyphenyl)-2-(methylsulfonyl)ethyl)-1,3-dioxoisoindolin-4-yl)nonanamide] |  |  | ≤ 70
14 | O=C1CCC(N2Cc3c(cc(F)cc3C3CCN(CCCCCCCCCCCCOc4cc(C(=O)Nc5c(Cl)cncc5Cl)ccc4OC(F)F)CC3)C2=O)C(=O)N1 (centres unmarked) [Compound B7, N-(3,5-Dichloropyridin-4-yl)-4-(difluoromethoxy)-3-((12-(4-(2-(2,6-dioxo-piperidin-3-yl)-6-fluoro-1-oxoisoindolin-4-yl)piperidin-1-yl)dodecyl)oxy)benzamide] |  |  | ≤ 70
15 | O=C1CCC(N2C(=O)c3cccc(NCCCCCCCOc4cc(C(=O)Nc5c(Cl)cncc5Cl)ccc4OC(F)F)c3C2=O)C(=O)N1 (centres unmarked) [Compound B6, N-(3,5-Dichloropyridin-4-yl)-4-(difluoromethoxy)-3-((7-((2-(2,6-dioxopiperidin-3-yl)-1,3-dioxoisoindolin-4-yl)amino)heptyl)oxy)benzamide] |  |  | ≤ 70
16 | Cc1ncsc1-c1ccc(CNC(=O)[C@@H]2C[C@@H](O)CN2C(=O)[C@@H](NC(=O)CCCCCCCCOc2cc(C(=O)Nc3c(Cl)cncc3Cl)ccc2OC(F)F)C(C)(C)C)cc1 [Compound B20, (2S,4R)-1-((S)-2-(9-(5-((3,5-Dichloropyridin-4-yl)carbamoyl)-2-(difluoromethoxy)phenoxy)nonanamido)-3,3-dimethylbutanoyl)-4-hydroxy-N-(4-(4-methylthiazol-5-yl)benzyl)pyrrolidine-2-carboxamide] |  |  | ≤ 70
17 | Cc1ncsc1-c1ccc(CNC(=O)[C@@H]2C[C@@H](O)CN2C(=O)[C@@H](NC(=O)CCCCCCCCCCOc2cc(C(=O)Nc3c(Cl)cncc3Cl)ccc2OC(F)F)C(C)(C)C)cc1 [Compound B21, (2S,4R)-1-((S)-2-(11-(5-((3,5-dichloropyridin-4-yl)carbamoyl)-2-(difluoromethoxy)phenoxy)undecanamido)-3,3-dimethylbutanoyl)-4-hydroxy-N-(4-(4-methyl-thiazol-5-yl)benzyl)pyrrolidine-2-carboxamide] |  |  | ≤ 70
